Data as given in patent US20100298141A1, “SUBSTITUTED PYRIDINE N-OXIDE HERBICIDES” (E. I. DU PONT DE NEMOURS AND COMPANY, priority 2007, published 2010).

Legend:
velvetleaf [1] = experiment: Test C pre-/postemergence test; format: in vivo, Abutilon theophrasti; conditions: for Velvetleaf plant response rating: preemergence, scale 0 (no effect) to 100 (complete control)
Summary of the method: (§1)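 Test chemicals were formulated with surfactant in a non-phytotoxic solvent and sprayed both on freshly planted seeds (preemergence) and on 1- to 4-leaf plants of 2–18 cm (postemergence). Flooded-paddy pots received compound directly into 3 cm of standing water, maintained for the test.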

catchweed bedstraw = experiment: Test C pre-/postemergence test; format: in vivo, Galium aparine
Summary of the method: as §1

downy brome = experiment: Test C pre-/postemergence test; format: in vivo, Bromus tectorum
Summary of the method: as §1

johnsongrass = experiment: Test C pre-/postemergence test; format: in vivo, Sorghum halepense
Summary of the method: as §1

corn = experiment: Test C pre-/postemergence test; format: in vivo, Zea mays
Summary of the method: as §1

eastern black nightshade = experiment: Test C pre-/postemergence test; format: in vivo, Solanum ptycanthum
Summary of the method: as §1

woolly cupgrass = experiment: Test C pre-/postemergence test; format: in vivo, Eriochloa villosa
Summary of the method: as §1

rice = experiment: Test C flooded paddy test; format: in vivo, Oryza sativa; conditions: Flood
Summary of the method: (§2)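 Compound was added to standing water 3 cm above soil, flood maintained, and plants held in a greenhouse before visual scoring against controls at 13 to 15 days.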

wheat [2] = experiment: Test C pre-/postemergence test; format: in vivo, Triticum aestivum; conditions: for Wheat plant response rating: preemergence, scale 0 (no effect) to 100 (complete control)
Summary of the method: as §1

wheat [3] = experiment: Test A pre-/postemergence greenhouse test; format: in vivo, Triticum aestivum; conditions: for Wheat plant response rating: 0 to 100 scale
Summary of the method: (§3)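 Seeds sown in a loam soil–sand blend got a preemergence directed soil spray of compound in a non-phytotoxic solvent mixture containing surfactant. Postemergence sprays of the same formulation went at the same time onto plants 2–10 cm tall at the one- to two-leaf stage. Injury was scored visually against untreated controls after about ten days in the greenhouse.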

yellow nutsedge = experiment: Test C pre-/postemergence test; format: in vivo, Cyperus esculentus
Summary of the method: as §1

velvetleaf [4] = experiment: Test A pre-/postemergence greenhouse test; format: in vivo, Abutilon theophrasti; conditions: for Velvetleaf plant response rating: 0 to 100 scale
Summary of the method: as §3

wild oat = experiment: Test C pre-/postemergence test; format: in vivo, Avena fatua
Summary of the method: as §1

duck salad = experiment: Test C flooded paddy test; format: in vivo, Heteranthera limosa; conditions: Flood
Summary of the method: as §2

giant foxtail = experiment: Test C pre-/postemergence test; format: in vivo, Setaria faberii
Summary of the method: as §1

morningglory = experiment: Test C pre-/postemergence test; format: in vivo, Ipomoea coccinea
Summary of the method: as §1

redroot pigweed = experiment: Test A pre-/postemergence greenhouse test; format: in vivo, Amaranthus retroflexus; conditions: for Pigweed plant response rating: 0 to 100 scale
Summary of the method: as §3

[5] = 31 g ai/ha, Preemergence, scale 0 to 100
[6] = 62 g ai/ha, preemergence, scale 0 (no effect) to 100 (complete control)
[7] = preemergence, 125 g ai/ha, scale 0 (no effect) to 100 (complete control)
[8] = 31 g ai/ha, scale 0 to 100 (0 no effect, 100 complete control)
[9] = 62 g ai/ha, scale 0 to 100, 0 no effect, 100 complete control, 13 to 15 days
[10] = 125 g ai/ha, scale 0 to 100, 0 no effect, 100 complete control, 13 to 15 days
[11] = 250 g ai/ha, scale 0 to 100 (0 no effect, 100 complete control)
[12] = Postemergence, 125 g ai/ha, 0 is no effect, 100 is complete control
[13] = Postemergence, 500 g ai/ha, 0 is no effect, 100 is complete control
[14] = Preemergence, 125 g ai/ha, 0 no effect, 100 complete control
[15] = Preemergence, 500 g ai/ha, 0 to 100 scale where 0 is no effect and 100 is complete control

Cn1nc(C(F)(F)F)c(C[S+]([O-])c2ccc(Br)c[n+]2[O-])c1OC(F)F (racemic) [Compound 16]
Velvetleaf plant response rating (velvetleaf [1]; 62 g ai/ha): 100
Plant response rating (0 to 100), Velvetleaf (velvetleaf [1]; Preemergence, 250 g ai/ha): 100
Velvetleaf plant response rating (velvetleaf [1]; 125 g ai/ha): 100
Galium plant response rating (catchweed bedstraw; [5]): 0
Galium plant response rating (catchweed bedstraw; [6]): 100
Plant response rating (0 to 100), Galium (catchweed bedstraw; Preemergence, 250 g ai/ha): 100
Galium plant response rating (catchweed bedstraw; [7]): 100
Bromegrass, Downy plant response rating (downy brome; [5]): 20
Bromegrass, Downy plant response rating (downy brome; [6]): 50
Plant response rating (0 to 100), Bromegrass, Downy (downy brome; Preemergence, 250 g ai/ha): 60
Bromegrass, Downy plant response rating (downy brome; [7]): 55
Johnsongrass plant response rating (johnsongrass; [5]): 100
Johnsongrass plant response rating (johnsongrass; [6]): 100
Plant response rating (0 to 100), Johnsongrass (johnsongrass; Preemergence, 250 g ai/ha): 100
Johnsongrass plant response rating (johnsongrass; [7]): 100
Corn plant response rating (corn; [5]): 40
Corn plant response rating (corn; [6]): 95
Plant response rating (0 to 100), Corn (corn; Preemergence, 250 g ai/ha): 100
Corn plant response rating (corn; [7]): 98
Nightshade plant response rating (eastern black nightshade; [5]): 100
Nightshade plant response rating (eastern black nightshade; [6]): 100
Plant response rating (0 to 100), Nightshade (eastern black nightshade; Preemergence, 250 g ai/ha): 100
Nightshade plant response rating (eastern black nightshade; [7]): 100
Cupgrass, Woolly plant response rating (woolly cupgrass; [5]): 20
Cupgrass, Woolly plant response rating (woolly cupgrass; [6]): 80
Plant response rating (0 to 100), Cupgrass, Woolly (woolly cupgrass; Preemergence, 250 g ai/ha): 100
Cupgrass, Woolly plant response rating (woolly cupgrass; [7]): 95
Plant response rating, Rice (rice; [8]): 0
Plant response rating, Rice (rice; [9]): 0
Plant response rating, Rice (rice; [10]): 0
Plant response rating, Rice (rice; [11]): 0
Wheat plant response rating (wheat [2]; 62 g ai/ha): 30
Plant response rating (0 to 100), Wheat (wheat [2]; Preemergence, 250 g ai/ha): 90
Wheat plant response rating (wheat [2]; 125 g ai/ha): 60
Wheat plant response rating (wheat [3]; [12]): 60
Wheat plant response rating (wheat [3]; [13]): 70
Wheat plant response rating (wheat [3]; [14]): 60
Plant response rating, Wheat (wheat [3]; [15]): 80
Nutsedge, Yellow plant response rating (yellow nutsedge; [5]): 60
Nutsedge, Yellow plant response rating (yellow nutsedge; [6]): 80
Plant response rating (0 to 100), Nutsedge, Yellow (yellow nutsedge; Preemergence, 250 g ai/ha): 100
Nutsedge, Yellow plant response rating (yellow nutsedge; [7]): 85
Velvetleaf plant response rating (velvetleaf [4]; [12]): 50
Velvetleaf plant response rating (velvetleaf [4]; [13]): 90
Velvetleaf plant response rating (velvetleaf [4]; [14]): 80
Plant response rating, Velvetleaf (velvetleaf [4]; [15]): 100
Oat, Wild plant response rating (wild oat; [5]): 0
Oat, Wild plant response rating (wild oat; [6]): 70
Plant response rating (0 to 100), Oat, Wild (wild oat; Preemergence, 250 g ai/ha): 80
Oat, Wild plant response rating (wild oat; [7]): 75
Plant response rating, Ducksalad (duck salad; [8]): 0
Plant response rating, Ducksalad (duck salad; [9]): 0
Plant response rating, Ducksalad (duck salad; [10]): 0
Plant response rating, Ducksalad (duck salad; [11]): 0
Foxtail, Giant plant response rating (giant foxtail; [5]): 80
Foxtail, Giant plant response rating (giant foxtail; [6]): 100
Plant response rating (0 to 100), Foxtail, Giant (giant foxtail; Preemergence, 250 g ai/ha): 100
Morningglory plant response rating (morningglory; [5]): 0
Morningglory plant response rating (morningglory; [6]): 10
Plant response rating (0 to 100), Morningglory (morningglory; Preemergence, 250 g ai/ha): 100
Morningglory plant response rating (morningglory; [7]): 95
Pigweed plant response rating (redroot pigweed; [12]): 20
Pigweed plant response rating (redroot pigweed; [13]): 70
Pigweed plant response rating (redroot pigweed; [14]): 100
Plant response rating, Pigweed (redroot pigweed; [15]): 100
